US6004933A, “Cysteine protease inhibitors” (Cortech Inc., priority 1998, dated 1999)
Where two headings read alike, the source gives them in different places.

Assays:
ICE (Caspase 1) [1] = target: T1, ICE (Caspase 1) (Homo sapiens, UniProt P29466); experiment: Human whole blood assay: IL-1β release after LPS stimulation (assay for ICE inhibition); type: cell-based; settings: LPS 10 or 100 ug/ml, 4 hr, ELISA, read-out: IC50 of reduction of IL1β release in whole blood assay
T1 construct: endogenous in cells; host or cells: THP-1
T1 sequence (P29466 120-297 limits assumed): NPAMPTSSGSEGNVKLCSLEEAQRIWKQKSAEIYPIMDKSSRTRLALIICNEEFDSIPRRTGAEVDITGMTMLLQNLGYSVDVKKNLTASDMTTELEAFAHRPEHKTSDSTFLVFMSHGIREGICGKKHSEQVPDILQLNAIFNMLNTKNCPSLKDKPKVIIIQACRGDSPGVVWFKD
T1 sequence (P29466 317-404 limits assumed): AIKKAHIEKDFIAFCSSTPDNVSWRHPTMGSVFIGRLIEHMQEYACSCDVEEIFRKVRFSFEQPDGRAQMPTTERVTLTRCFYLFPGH
Source text: (§1) To examine the ability of the caspase family inhibitors, CQ-0010 and CQ-0011, to inhibit human IL-1β production, two different assays were employed. In the first, the human monocytic cell line, THP-1, was stimulated with E. coli lipopolysaccharide (LPS serotype 0127-88; Sigma Chemical Co., St. Louis, Mo.) in the presence and absence of the inhibitors. This cell line synthesizes and secretes IL-1β and TNFα as well as other cytokines upon LPS stimulation. The second assay used freshly-isolated human whole blood similarly stimulated with LPS.
Heparinized whole blood (19.7 U heparin per ml) from healthy volunteers was collected and dispensed into 12×75 mm polystyrene tubes (0.25 ml per tube). The inhibitors, CQ-0010, CQ-0011 and Ac-YVAD-CHO were dissolved in DMSO, then diluted and added to the tubes in 0.25 ml and preincubated with the blood for 15 min at 37° C. LPS was then added to a final concentration of 10 or 100 ug/ml.
The tubes were loosely-capped and incubated in a water bath for 4 hr at 37° C. after which they were immersed briefly in an ice-water bath. Supernatants were harvested by centrifngation and stored at -70° C. The presence of TNFα and IL-1β was detected by commercially-available ELISA kits.

FLICE (Mch5, Caspase 8) = FLICE (Mch5, Caspase 8) (Homo sapiens, UniProt Q14790); experiment: Caspase inhibition, photometric, Ac-DEVD-pNA; type: biochemical
Procedure: (§2) Inhibition constants were measured photometrically for YAMA (caspase 3), Lap3 (caspase 7), FLICE (caspase 8), Mch2 (caspase 6) and granzyme B. The buffer used for all enzymes consisted of 50 mM Hepes, 100 mM sodium chloride, 10% (v/v) sucrose, 0.1% (v/v) CHAPS and 10 mM dithiothreitol (DTT). In the case of granzyme B, only 1 mM DTT was used.
(§3) Enzymes were incubated at 37° C. for 10 minutes in 100 μL well plates and synthetic substrate and inhibitor were added simultaneously. Final substrate concentration was 20 μM in all cases. The synthetic substrate Ac-DEVD-pNA was used for all caspases and Succ-AAPD-pNA was used for granzyme B. The appearance of product was monitored over 10 minutes at 410 nm using a Spectromax 340 and IC50 curves were calculated from the initial slopes at varying inhibitor concentrations and inhibition constants were calculated.

YAMA (CPP32, Caspase 3) = target: T2, YAMA (CPP32, Caspase 3) (Homo sapiens, UniProt P42574); experiment: Caspase inhibition, photometric, Ac-DEVD-pNA; type: biochemical; settings: 20 μM Ac-DEVD-pNA, 37° C.
T2 sequence (P42574 29-175 limits assumed): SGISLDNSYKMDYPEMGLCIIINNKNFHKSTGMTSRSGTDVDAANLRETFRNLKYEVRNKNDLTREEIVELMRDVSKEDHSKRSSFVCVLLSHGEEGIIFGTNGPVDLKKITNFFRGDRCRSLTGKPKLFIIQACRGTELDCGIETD
T2 sequence (P42574 176-277 limits assumed): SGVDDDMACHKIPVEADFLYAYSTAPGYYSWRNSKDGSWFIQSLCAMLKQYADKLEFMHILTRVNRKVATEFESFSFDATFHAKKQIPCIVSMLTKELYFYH
Procedure: as §2, §3

Mch2 (Caspase 6) = target: T3, Mch2 (Caspase 6) (Homo sapiens, UniProt P55212); experiment: Caspase inhibition, photometric, Ac-DEVD-pNA; type: biochemical; settings: 20 μM Ac-DEVD-pNA, 37° C.
T3 sequence (P55212 24-179 limits assumed): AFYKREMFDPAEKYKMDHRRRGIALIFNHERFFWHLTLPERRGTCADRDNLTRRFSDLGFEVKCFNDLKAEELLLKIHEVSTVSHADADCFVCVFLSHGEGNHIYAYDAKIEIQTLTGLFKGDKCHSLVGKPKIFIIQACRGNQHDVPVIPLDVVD
T3 sequence (P55212 194-293 limits assumed): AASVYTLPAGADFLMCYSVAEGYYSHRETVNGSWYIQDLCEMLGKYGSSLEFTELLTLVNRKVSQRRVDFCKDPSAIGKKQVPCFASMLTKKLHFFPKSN
Procedure: as §2, §3

Lap3 (Mch3, Caspase 7) = target: T4, Lap3 (Mch3, Caspase 7) (Homo sapiens, UniProt P55210); experiment: Caspase inhibition, photometric, Ac-DEVD-pNA; type: biochemical; settings: 20 μM Ac-DEVD-pNA, 37° C.
T4 sequence (P55210 24-198 limits assumed): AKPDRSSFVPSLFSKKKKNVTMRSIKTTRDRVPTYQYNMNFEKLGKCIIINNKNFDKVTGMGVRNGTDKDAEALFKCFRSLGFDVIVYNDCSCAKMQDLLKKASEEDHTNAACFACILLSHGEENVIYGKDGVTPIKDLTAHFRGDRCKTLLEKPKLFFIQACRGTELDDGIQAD
T4 sequence (P55210 207-303 limits assumed): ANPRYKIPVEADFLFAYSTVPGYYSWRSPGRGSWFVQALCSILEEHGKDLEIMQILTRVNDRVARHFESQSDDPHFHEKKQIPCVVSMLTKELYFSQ
Procedure: as §2, §3

granzyme B = granzyme B (Homo sapiens, UniProt P10144); experiment: Granzyme B inhibition, photometric, Succ-AAPD-pNA; type: biochemical; settings: 20 μM Succ-AAPD-pNA, 1 mM DTT
Procedure: as §2, §3

ICE (Caspase 1) [2] = target: T1, ICE (Caspase 1); experiment: THP-1 assay: IL-1β release after LPS stimulation (assay for ICE inhibition); type: cell-based; settings: for IC50: LPS 1 ug/ml, 4 hr, ELISA, read-out: IC50 of reduction of IL1β release from THP1 cell line
Source text: as §1
(§4) Two×10^6 THP-1 cells were added to 24 well plates in 1 ml RPMI supplemented with 1% FCS, glutamine and 5×10^-5 M mercaptoethanol. Two-fold serial dilutions of the inhibitors, CQ-0010, CQ-0011 and the commmercially available Ac-YVAD-CHO (Biomol Research Laboratories Inc., Plymouth Meeting, Pa.), were preincubated with the cells for 15 min at 37° C. LPS was then added to a final concentration of 1 ug/ml and the plates incubated for 4 hr at 37° C. All incubations were carried out in a humidified incubator with 5% CO2 in air.
(§5) Supernatants were harvested after 4 hr and assayed by ELISA for the presence of TNFα and IL-1β using commercially available kits (PerSeptive Biosystems, Framingham, Mass. and R&D Systems, Minneapolis, Minn., respectively).

TNFα = experiment: THP-1 assay: TNFα levels after LPS stimulation; type: cell-based, human; settings: THP-1 cells, results not shown
Source text: as §1, §4, §5

[3] = 20 μM Ac-DEVD-pNA, 37° C., read-out: Ki, FLICE (Mch5, Caspase 8)

Chain of FLICE (Mch5, Caspase 8) (Q14790 217-374 limits assumed, species assumed): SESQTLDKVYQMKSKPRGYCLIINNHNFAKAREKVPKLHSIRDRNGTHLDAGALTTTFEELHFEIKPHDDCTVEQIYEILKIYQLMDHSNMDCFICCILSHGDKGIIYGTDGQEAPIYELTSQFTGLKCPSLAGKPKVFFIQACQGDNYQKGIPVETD
Chain of FLICE (Mch5, Caspase 8) (Q14790 385-479 limits assumed, species assumed): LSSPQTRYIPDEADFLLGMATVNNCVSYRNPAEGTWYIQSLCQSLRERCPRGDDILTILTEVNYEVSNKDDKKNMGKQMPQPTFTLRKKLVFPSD
Chain of granzyme B (P10144 21-247, species assumed): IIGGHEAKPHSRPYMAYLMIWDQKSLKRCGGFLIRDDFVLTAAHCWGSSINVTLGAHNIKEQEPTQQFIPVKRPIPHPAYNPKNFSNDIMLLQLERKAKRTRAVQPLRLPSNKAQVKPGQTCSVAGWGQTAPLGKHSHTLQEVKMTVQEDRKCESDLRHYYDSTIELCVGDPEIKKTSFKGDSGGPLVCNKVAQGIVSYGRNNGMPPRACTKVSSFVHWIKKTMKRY

Row | Ki (FLICE (Mch5, Caspase 8); read-out: Ki, FLICE) | inhibition of IL-1β production (ICE (Caspase 1) [2]; at 5 μM, THP-1 cells (FIG. 1)) | Compound | IC50 (ICE (Caspase 1) [1]) | Ki (FLICE (Mch5, Caspase 8); [3]) | Ki (YAMA (CPP32, Caspase 3)) | Ki (Mch2 (Caspase 6)) | Ki, Lap3 (Mch3, Caspase 7) (Lap3 (Mch3, Caspase 7)) | Ki, Granzyme (granzyme B) | IC50 (ICE (Caspase 1) [2]) | effect on levels of TNFα produced (TNFα)
1 |  |  | CC(=O)N[C@@H](Cc1ccc(O)cc1)C(=O)N[C@H](C(=O)N[C@@H](C)C(=O)N[C@H](C=O)CC(=O)O)C(C)C [Ac-YVAD-CHO, reference compound] | 300 to 500 nM | 3700 nM | 20000 nM | 100000 nM | Not Active | Not Active | 300 nM | 
2 | ≤ 20 nM | almost completely inhibiting | CC(=O)N[C@@H](Cc1ccc(O)cc1)C(=O)N[C@H](C(=O)N[C@@H](C)C(=O)NC(CC(=O)O)C(=O)c1nnc(-c2ccccc2)o1)C(C)C (stereo partly drawn) [CQ-0010, Acetyl-L-tyrosinyl-L-valyl-N-[1-[2-[(5-phenyl)-1,3,4-oxadiazolyl]carbonyl]-2-carboxy-ethyl]-L-alanine amide] | 300 to 500 nM | ≤ 20 nM | 3300 nM | 33000 nM | Not Active | Not Active | 300 nM | no dose-dependent effect
